Test results reported in ChEMBL document CHEMBL1201862, “PubChem BioAssay data set” (2004).
“And” between values parts separate entries of the source, which are not always exact repeats. Equal values may be shown once.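 Protocol summary: plate cells (96-well), add compound at 5 concentrations, incubate 48 h, interpolate endpoints linearly. Abbreviation: GI50, concentration required for 50% inhibition of growth.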 The source made the active and inactive calls. Cut-off read from the data, not from the text of the source: active = GI50 up to about 1.1 µM and inactive = higher.

Columns and labels:
Experiment in all cases: NCI-60 cell line screen, 48 h
HCC 2998 = system: HCC 2998
NCI-H460 = system: NCI-H460
HOP-92 = system: HOP-92
LOX IMVI = system: LOX IMVI
MDA-N = system: MDA-N
SF-268 = system: SF-268
SW-620 = system: SW-620
UO-31 = system: UO-31
NCI/ADR-RES = system: NCI/ADR-RES
HT-29 = system: HT-29
CCRF-CEM = system: CCRF-CEM
MDA-MB-435 = system: MDA-MB-435
MDA-MB-231 = system: MDA-MB-231
OVCAR-5 = system: OVCAR-5
Malme-3M = system: Malme-3M
IGROV-1 = system: IGROV-1
OVCAR-8 = system: OVCAR-8
SK-MEL-28 = system: SK-MEL-28
OVCAR-3 = system: OVCAR-3
SN12C = system: SN12C
HCT-116 = system: HCT-116
HL-60 = system: HL-60
EKVX = system: EKVX
M14 = system: M14
KM12 = system: KM12
NCI-H226 = system: NCI-H226
K562 = system: K562
COLO 205 = system: COLO 205
Hs-578T = system: Hs-578T
786-0 = system: 786-0
SNB-19 = system: SNB-19
RPMI-8226 = system: RPMI-8226
HCT-15 = system: HCT-15
SR = system: SR
NCI-H23 = system: NCI-H23
ACHN = system: ACHN
BT-549 = system: BT-549
MOLT-4 = system: MOLT-4
SK-MEL-5 = system: SK-MEL-5
TK-10 = system: TK-10
SNB-75 = system: SNB-75
MCF7 = system: MCF7
A498 = system: A498
SF-539 = system: SF-539
NCI-H522 = system: NCI-H522
T47D = system: T47D
SK-OV-3 = system: SK-OV-3
RXF 393 = system: RXF 393
A549 = system: A549
UACC-257 = system: UACC-257
HOP-62 = system: HOP-62
OVCAR-4 = system: OVCAR-4
PC-3 = system: PC-3
SK-MEL-2 = system: SK-MEL-2
U-251 = system: U-251
SF-295 = system: SF-295
DU-145 = system: DU-145
UACC-62 = system: UACC-62
M19-MEL = system: M19-MEL
DLD-1 = system: DLD-1
XF498 = system: XF498
CAKI-1 = system: CAKI-1
KM-20L2 = system: KM-20L2
LXFL 529 = system: LXFL 529
DMS-273 = system: DMS-273

**Q.** With `C/C(=N\NC(=S)NCCCNC(=S)N/N=C(\C)c1ccccn1)c1ccccn1` as the compound, how does the GI50 (HCC 2998) read?
**A.** 5.71 µM (inactive)

**Q.** What about the GI50 (NCI-H460) of the same compound?
**A.** 1.29 µM (inactive)

**Q.** And the GI50 (HOP-92)?
**A.** 6.73 µM (inactive)

**Q.** And the GI50 (LOX IMVI)?
**A.** 2.81 µM (inactive)

**Q.** What about the GI50 (MDA-N) of the same compound?
**A.** 9.27 µM (inactive)

**Q.** What about the GI50 (SF-268) of the same compound?
**A.** 2.62 µM (inactive)

**Q.** What about the GI50 (SW-620) of the same compound?
**A.** 22.5 µM (inactive)

**Q.** What about the GI50 (UO-31) of the same compound?
**A.** 1.83 µM (inactive)

**Q.** What about the GI50 (NCI/ADR-RES) of the same compound?
**A.** 2.22 µM (inactive)

**Q.** And the GI50 (HT-29)?
**A.** 2 µM (inactive)

**Q.** And the GI50 (CCRF-CEM)?
**A.** 1.16 µM (inactive)

**Q.** And the GI50 (MDA-MB-435)?
**A.** 3.23 µM (inactive)

**Q.** What about the GI50 (MDA-MB-231) of the same compound?
**A.** 6.21 µM (inactive)

**Q.** And the GI50 (OVCAR-5)?
**A.** 7.94 µM (inactive)

**Q.** And the GI50 (Malme-3M)?
**A.** 2.42 µM (inactive)

**Q.** What about the GI50 (IGROV-1) of the same compound?
**A.** 3.9 µM (inactive)

**Q.** What about the GI50 (OVCAR-8) of the same compound?
**A.** 1.71 µM (inactive)

**Q.** What about the GI50 (SK-MEL-28) of the same compound?
**A.** 4.99 µM (inactive)

**Q.** And the GI50 (OVCAR-3)?
**A.** 2.95 µM (inactive)

**Q.** What about the GI50 (SN12C) of the same compound?
**A.** 1.98 µM (inactive)

**Q.** What about the GI50 (HCT-116) of the same compound?
**A.** 2.88 µM (inactive)

**Q.** What about the GI50 (HL-60) of the same compound?
**A.** 1.35 µM (inactive)

**Q.** What about the GI50 (EKVX) of the same compound?
**A.** 3.79 µM (inactive)

**Q.** And the GI50 (M14)?
**A.** 0.733 µM (active)

**Q.** What about the GI50 (KM12) of the same compound?
**A.** 2.94 µM (inactive)

**Q.** What about the GI50 (NCI-H226) of the same compound?
**A.** 6.92 µM (inactive)

**Q.** And the GI50 (K562)?
**A.** 4.06 µM (inactive)

**Q.** What about the GI50 (COLO 205) of the same compound?
**A.** 1.8 µM (inactive)

**Q.** And the GI50 (Hs-578T)?
**A.** > 47.6 µM (inactive)

**Q.** What about the GI50 (786-0) of the same compound?
**A.** 0.617 µM (active)

**Q.** And the GI50 (SNB-19)?
**A.** > 34.8 µM (inactive)

**Q.** And the GI50 (RPMI-8226)?
**A.** 4.2 µM (inactive)

**Q.** What about the GI50 (HCT-15) of the same compound?
**A.** 1.3 µM

**Q.** And the GI50 (SR)?
**A.** 0.968 µM (active)

**Q.** What about the GI50 (NCI-H23) of the same compound?
**A.** 7.33 µM (inactive)

**Q.** And the GI50 (ACHN)?
**A.** 1.4 µM (inactive)

**Q.** And the GI50 (BT-549)?
**A.** 3.13 µM (inactive)

**Q.** What about the GI50 (MOLT-4) of the same compound?
**A.** 2.51 µM (inactive)

**Q.** And the GI50 (SK-MEL-5)?
**A.** 2.02 µM (inactive)

**Q.** What about the GI50 (TK-10) of the same compound?
**A.** 0.619 µM (active)

**Q.** What about the GI50 (SNB-75) of the same compound?
**A.** 2.95 µM (inactive)

**Q.** What about the GI50 (MCF7) of the same compound?
**A.** 3.34 µM (inactive)

**Q.** And the GI50 (A498)?
**A.** 4.97 µM (inactive)

**Q.** What about the GI50 (SF-539) of the same compound?
**A.** 2.42 µM (inactive)

**Q.** What about the GI50 (NCI-H522) of the same compound?
**A.** 1.37 µM (inactive)

**Q.** What about the GI50 (T47D) of the same compound?
**A.** 3.51 µM (inactive)

**Q.** What about the GI50 (SK-OV-3) of the same compound?
**A.** 2.01 µM (inactive)

**Q.** What about the GI50 (RXF 393) of the same compound?
**A.** 3.03 µM (inactive)

**Q.** And the GI50 (A549)?
**A.** 3.48 µM (inactive)

**Q.** And the GI50 (UACC-257)?
**A.** 2.75 µM (inactive)

**Q.** And the GI50 (HOP-62)?
**A.** 1.94 µM (inactive)

**Q.** And the GI50 (OVCAR-4)?
**A.** 5.28 µM (inactive)

**Q.** And the GI50 (PC-3)?
**A.** 9.1 µM (inactive)

**Q.** What about the GI50 (SK-MEL-2) of the same compound?
**A.** 2.06 µM (inactive)

**Q.** What about the GI50 (U-251) of the same compound?
**A.** 2.77 µM (inactive)

**Q.** What about the GI50 (SF-295) of the same compound?
**A.** 5.27 µM (inactive)

**Q.** And the GI50 (DU-145)?
**A.** 2.26 µM (inactive)

**Q.** And the GI50 (UACC-62)?
**A.** 2.66 µM (inactive)

**Q.** Which results are given for `Cn1c(=O)c2nc(N3CCCCC3)cnc2n(C)c1=O`?
**A.** GI50 (HCC 2998): > 100 µM (inactive); GI50 (NCI-H460): > 100 µM (inactive); GI50 (HOP-92): > 100 µM (inactive); GI50 (SF-268): > 100 µM (inactive); GI50 (SW-620): > 100 µM (inactive); GI50 (UO-31): > 100 µM (inactive); GI50 (HT-29): > 100 µM (inactive); GI50 (CCRF-CEM): > 100 µM (inactive); GI50 (OVCAR-5): > 100 µM (inactive); GI50 (M19-MEL): > 100 µM (inactive); GI50 (Malme-3M): > 100 µM (inactive); GI50 (IGROV-1): > 100 µM (inactive); GI50 (OVCAR-8): > 100 µM (inactive); GI50 (SK-MEL-28): > 100 µM (inactive); GI50 (OVCAR-3): > 100 µM (inactive); GI50 (SN12C): > 100 µM (inactive); GI50 (DLD-1): > 100 µM (inactive); GI50 (HCT-116): > 100 µM (inactive); GI50 (HL-60): > 100 µM (inactive); GI50 (EKVX): > 100 µM (inactive); GI50 (M14): > 100 µM (inactive); GI50 (KM12): > 100 µM (inactive); GI50 (K562): > 100 µM (inactive); GI50 (COLO 205): > 100 µM (inactive); GI50 (XF498): > 100 µM (inactive); GI50 (SNB-19): > 100 µM (inactive); GI50 (RPMI-8226): > 100 µM (inactive); GI50 (HCT-15): > 100 µM; GI50 (SR): > 100 µM (inactive); GI50 (NCI-H23): > 100 µM (inactive); GI50 (ACHN): > 100 µM (inactive); GI50 (MOLT-4): > 100 µM (inactive); GI50 (SK-MEL-5): > 100 µM (inactive); GI50 (TK-10): > 100 µM (inactive); GI50 (SNB-75): > 100 µM (inactive); GI50 (CAKI-1): > 100 µM (inactive); GI50 (KM-20L2): > 100 µM (inactive); GI50 (A498): > 100 µM (inactive); GI50 (SF-539): > 100 µM (inactive); GI50 (LXFL 529): > 100 µM (inactive); GI50 (NCI-H522): > 100 µM (inactive); GI50 (SK-OV-3): > 100 µM (inactive); GI50 (A549): > 100 µM (inactive); GI50 (UACC-257): > 100 µM (inactive); GI50 (HOP-62): > 100 µM (inactive); GI50 (OVCAR-4): > 100 µM (inactive); GI50 (U-251): > 100 µM (inactive); GI50 (SF-295): > 100 µM (inactive); GI50 (UACC-62): > 100 µM (inactive)

**Q.** Which results are given for `O=c1[nH]c(=O)n([C@H]2C[C@H](O)[C@@H](CO)O2)cc1F` [FLOXURIDINE]?
**A.** GI50 (DMS-273): 0.319 µM (active); GI50 (OVCAR-5): 103 µM (inactive) and > 89.9 µM (inactive)
